Measured values taken from US7026281B1, “Antagonistic analogs of GH-RH inhibiting IGF-I and -II” (The Administrators of the Tulane Educational Fund, priority 1998, dated 2006).
Marks after values point to notes of the source that are not given here. Square brackets hold non-standard residues; d marks the D form. Peptide text beside a SMILES is read from it. * marks the point of attachment. Phe(4-Cl) = N[C@@H](Cc1ccc(Cl)cc1)C(=O)O; hArg = N=C(N)NCCCC[C@H](N)C(=O)O; Nle = CCCC[C@H](N)C(=O)O; Abu = CC[C@H](N)C(=O)O; PhAc = O=C(Cc1ccccc1)*

How the values were obtained:
[1] = system: hGH-RH(1–29)NH2 induced GH release; assay: Inhibition of GH release in superfused rat pituitary system; assay type: cell-based; conditions: for Inhibition of GH release (%) 30 min / Inhibition of GH release (%) 60 min / Inhibition of GH release (%) 90 min / Inhibition of GH release (%) 120 min / Inhibition of GH release (%) 0 min: antagonist 30 nM; for Inhibition of GH release (%) 30 min: 1 nM hGH-RH(1–29)NH2 30 min later; for Inhibition of GH release (%) 60 min: 1 nM hGH-RH(1–29)NH2 60 min later; for Inhibition of GH release (%) 90 min: 1 nM hGH-RH(1–29)NH2 90 min later; for Inhibition of GH release (%) 120 min: 1 nM hGH-RH(1–29)NH2 120 min later; for Inhibition of GH release (%) 0 min: 1 nM hGH-RH(1–29)NH2 at 0 min
In short: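 Superfused rat pituitary cells preincubated 9 min with peptide, then challenged for 3 min with 1 nM hGH-RH(1–29)NH2 at 0, 30, 60, 90 and 120 min. Rat GH measured by double-antibody RIA; net integral GH responses expressed as percent of the original 1 nM GH-RH-induced response.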

[2] = system: MDA-MB-468 human breast cancer xenografts; assay: MDA-MB-468 human breast cancer xenografts in nude mice; assay type: in vivo; conditions: 20 μg daily s.c., 5 weeks
Protocol: Nude mice bearing MDA-MB-468 hormone-independent human breast cancer xenografts were divided into groups of 10 animals each. The treated groups received single daily s.c. injections of 20 μg of GH-RH antagonists. One group was treated with Peptide 1, a second group was treated with MZ-5-156 for comparison. The control group was injected with the vehicle solvent. The treatment was continued for 5 weeks. Tumors were measured once a week and tumor volume was calculated. The mice were sacrificed at the end of experiment and tumor weights were measured.

[3] = system: HT-29 human colon cancers; assay: HT-29 human colon cancer xenografts in nude mice; assay type: in vivo; conditions: 20 μg daily sc., 6 weeks
Protocol: HT-29 human colon cancers were transplanted sc. into male nude mice. 19 days after transplantation, the mice were divided into groups of 10 animals each, and the treatment was started. The mice received single daily injections of various GH-RH antagonists sc. at 20 μg dose per day for 6 weeks. Tumors were measured regularly, and tumor volume was calculated. The mice were sacrificed at the end of experiment and tumor weights were measured.

[4] = system: U87MG human glioblastoma xenografts; assay: U87MG human glioblastoma xenografts in nude mice; assay type: in vivo; conditions: 20 μg daily s.c., 28 days
Protocol: Mice were implanted s.c. with U87MG glioblastomas and when tumors reached a volume of approx. 70 mm^3 the mice were randomly divided into 2 experimental groups. One group was treated with Peptide 1 in single daily s.c. injections of 20 μg for 28 days, while the other group served as control.

[5] = system: PC-3 human prostate cancer xenografts; assay: PC-3 human prostate cancer xenografts in nude mice; assay type: in vivo; conditions: 20 μg daily s.c., 21 days
Protocol: Male nude mice were implanted s.c. with 3 mm^3 pieces of PC-3 human hormone-independent prostate cancer tissue into both flanks. When tumors reached a volume of approx. 40–50 mm^3 the mice were divided into 3 experimental groups. The first and second groups were treated with peptides Peptide 3 and MZ-5-156, respectively, in single daily s.c. injections of 20 μg for 21 days, while the third group served as control. Tumor volumes were measured at weekly intervals, tumor weights were measured at the end of experiment.

CCCC[C@H](NC(=O)[C@@H](NC(=O)[C@H](CC(=O)O)NC(=O)[C@H](CCC(N)=O)NC(=O)[C@H](CC(C)C)NC(=O)[C@H](CC(C)C)NC(=O)[C@H](CCCCN)NC(=O)[C@H](CCCNC(=N)N)NC(=O)[C@H](C)NC(=O)[C@H](CO)NC(=O)[C@H](CC(C)C)NC(=O)[C@H](CCC(N)=O)NC(=O)[C@H](CC)NC(=O)[C@H](CC(C)C)NC(=O)[C@@H](NC(=O)[C@H](CCCCN)NC(=O)[C@H](CCCNC(=N)N)NC(=O)[C@H](Cc1ccc(O)cc1)NC(=O)[C@H](CCCNC(=N)N)NC(=O)[C@H](CC(N)=O)NC(=O)[C@@H](NC(=O)[C@H](Cc1ccc(Cl)cc1)NC(=O)[C@@H](NC(=O)[C@H](C)NC(=O)[C@H](CC(=O)O)NC(=O)[C@@H](CCCNC(=N)N)NC(=O)[C@H](Cc1ccc(O)cc1)NC(=O)Cc1ccccc1)[C@@H](C)CC)[C@@H](C)O)C(C)C)[C@@H](C)CC)C(=O)N[C@H](CCCNC(=N)N)C(=O)N[C@@H](CCCCNC(=N)N)C(N)=O [Peptide 1, [PhAc^0, D-Arg^2, Phe(pCl)^6, Arg^9, Abu^15, Nle^27, D-Arg^28, Har^29]hGH-RH(1–29)NH2] (PhAc-Y[dR]DAI[Phe(4-Cl)]TNRYRKVL[Abu]QLSARKLLQDI[Nle][dR][hArg]-NH2)
Inhibition of GH release (%) 30 min [1]: 100% | Inhibition of GH release (%) 60 min [1]: 100% | Inhibition of GH release (%) 90 min [1]: 100% | Inhibition of GH release (%) 120 min [1]: 94% | Inhibition of GH release (%) 0 min [1]: 100% | Duration of complete inhibition of the GH-RH induced GH release ([1]; standard test conditions): 90 min | Final tumor volume (mm^3) ([2]; nude mice): 82.4 ± 29.1** mm^3 | Tumor weight ([2]; nude mice): 64.0 ± 28.7 mg | Number of regressed tumors ([2]; groups of 10): 4 | Inhibitory effect on HT-29 human colon cancers (in words) [3]: equally strong inhibitory effect | Final tumor volume (mm^3) ([3]; nude mice): 890 ± 322* mm^3 | Tumor weight ([3]; nude mice): 1354 ± 480 mg | Final tumor volume (mm^3) [4]: 817 ± 323** mm^3 | Tumor weight [4]: 1.4 ± 0.7 g

CCCC[C@H](NC(=O)[C@@H](NC(=O)[C@H](CC(=O)O)NC(=O)[C@H](CCC(N)=O)NC(=O)[C@H](CC(C)C)NC(=O)[C@H](CC(C)C)NC(=O)[C@H](CCCCN)NC(=O)[C@H](CCCNC(=N)N)NC(=O)[C@H](C)NC(=O)[C@H](CO)NC(=O)[C@H](CC(C)C)NC(=O)[C@H](CCC(N)=O)NC(=O)[C@H](CC)NC(=O)[C@H](CC(C)C)NC(=O)[C@@H](NC(=O)[C@H](CCCCN)NC(=O)[C@H](CCCNC(=N)N)NC(=O)[C@H](Cc1ccc(OC)cc1)NC(=O)[C@H](CCCCNC(=N)N)NC(=O)[C@H](CC(N)=O)NC(=O)[C@@H](NC(=O)[C@H](Cc1ccc(Cl)cc1)NC(=O)[C@@H](NC(=O)[C@H](C)NC(=O)[C@H](CC(=O)O)NC(=O)[C@@H](CCCNC(=N)N)NC(=O)[C@H](Cc1ccc(O)cc1)NC(=O)Cc1ccccc1)[C@@H](C)CC)[C@@H](C)O)C(C)C)[C@@H](C)CC)C(=O)N[C@H](CCCNC(=N)N)C(=O)N[C@@H](CCCCNC(=N)N)C(N)=O [Peptide 3, [PhAc^0, D-Arg^2, Phe(pCl)^6, Har^9, Tyr(Me)^10, Abu^15, Nle^27, D-Arg^28, Har^29]hGH-RH(1–29)NH2] (PhAc-Y[dR]DAI[Phe(4-Cl)]TN[hArg]Y(Me)RKVL[Abu]QLSARKLLQDI[Nle][dR][hArg]-NH2)
Inhibition of GH release (%) 30 min [1]: 98% | Inhibition of GH release (%) 60 min [1]: 91% | Inhibition of GH release (%) 90 min [1]: 92% | Inhibition of GH release (%) 120 min [1]: 87% | Inhibition of GH release (%) 0 min [1]: 85% | Inhibition in tumor volume [5]: 65% | Inhibition in tumor weight [5]: 62% | Final tumor volume (mm^3) ([5]; nude mice): 107.9 ± 12.5* mm^3 | Tumor weight ([5]; nude mice): 73.7 ± 11.9 mg
